ChEMBL document CHEMBL1141805, “Isolation of 1-Methylherbipoline Salts of Halisulfate-1 and of Suvanine as Serine Protease Inhibitors from a Marine Sponge, Coscinoderma mathewsi” (J Nat Prod, 1998)

How the values were obtained:
Prothrombin = Prothrombin (Homo sapiens, UniProt P00734)
[1] = Inhibition of trypsin

IC50 (Prothrombin) [µM] | IC50 [1] [µg/mL] | Structure (SMILES)
47.7 | 23 | CC1(C)CCC[C@H]2[C@H]1CC[C@@]1(C)[C@@H]2CC/C(=C\OS(=O)(=O)[O-])[C@@H]1CCc1ccoc1.C[N+](C)=C(N)N
62.6 | 2 | C/C(=C\Cc1cc(O)ccc1O)CCC[C@@H](C)[C@@H](C[C@@H]1CCC[C@H]2C(C)(C)CCC[C@@]12C)OS(=O)(=O)[O-].[Na+] [HALISULPHATESODIUM]
19.6 | 27 | CC1(C)CCC[C@H]2[C@H]1CC[C@@]1(C)[C@@H]2CC/C(=C\OS(=O)(=O)[O-])[C@@H]1CCc1ccoc1.[Na+]
